This is an account of results in patent US11590139B2, “Substituted aminopurine compounds, compositions thereof, and methods of treatment therewith” (Signal Pharmaceuticals, LLC, priority 2014, dated 2023).

In the first assay the test system is Lox-IMVI melanoma cell line. Description: Lox-IMVI anti-proliferative assay (growth inhibition, Cell Titer-Glo). The assay is classed as cell-based, human. The settings on record: Homo sapiens; IC50 activity level in the cell-based Lox-IMVI anti-proliferative assay; read-out: Activity. Summed up: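 Cells grown in RPMI + 10% FBS were exposed to compound at 0.5 nM to 10 μM (10-point, 3-fold dilution, duplicate, 0.2% DMSO final) for 72 h at 37 °C, 5% CO2. Viability was read by ATP luminescence at t0 and 72 h. IC50 came from a four-parameter logistic fit normalized to DMSO control.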
For the molecule `NC(=O)[C@H]1CC[C@@H](n2c(Nc3c(Cl)cc(Cl)cc3Cl)nc3cnc(NCC4(CO)CC4)nc32)CC1` [Example 205, (1s,4s)-4-(2-((1-(hydroxymethyl)cyclopropyl)methylami-no)-8-(2,4,6-trichlorophenylamino)-9H-purin-9-yl)cyclohexanecarboxamide], the IC50 is greater than 1000 nM.
Same read-out and setting: to `NC(=O)[C@H]1CC[C@@H](n2c(Nc3c(F)cccc3F)nc3cnc(NC4CCC4)nc32)CC1` [Example 42] belongs greater than 1000 nM.
On the same count and under the same terms, to `NC(=O)[C@H]1CC[C@@H](n2c(Nc3c(Cl)cc(Cl)cc3Cl)nc3cnc(N[C@H]4COC[C@@H]4O)nc32)CC1` [Example 313, (1R,4s)-4-(2-((3S,4R)-4-hydroxytetrahydrofuran-3-ylamino)-8-(2,4,6-trichlorophenylamino)-9H-purin-9-yl)cyclohexanecarboxamide] belongs 500 to 1000 nM; to `NC(=O)[C@H]1CC[C@@H](n2c(Nc3c(F)cc(F)cc3Cl)nc3cnc(N[C@H]4CCOC4)nc32)CC1` [Example 241, (1R,4s)-4-(8-(2-chloro-4,6-difluorophenylamino)-2-((S)-tetrahydrofuran-3-ylamino)-9H-purin-9-yl)cyclohexanecarboxamide], greater than 1000 nM.
As for `NC(=O)[C@H]1CC[C@@H](n2c(Nc3c(Cl)cccc3Cl)nc3cnc(N[C@@H]4CCC[C@H](O)C4)nc32)CC1` [Example 349, (1S,4s)-4-(8-(2,6-dichlorophenylamino)-2-((1R,3S)-3-hydroxycyclohexylamino)-9H-purin-9-yl)cyclohexanecarboxamide], the IC50 is greater than 1000 nM.
On the same count and under the same terms, to `NC(=O)[C@H]1CC[C@@H](n2c(Nc3c(F)ccc(Cl)c3Cl)nc3cnc(NC4CCOCC4)nc32)CC1` [Example 104, (1s,4s)-4-(8-(2,3-dichloro-6-fluorophenylamino)-2-(tetrahydro-2H-pyran-4-ylamino)-9H-purin-9-yl)cyclohexanecarboxamide] belongs 250 to 500 nM; to `NC(=O)[C@H]1CC[C@@H](n2c(Nc3c(F)cc(F)cc3F)nc3cnc(N[C@H]4C[C@H](O)C4)nc32)CC1` [Example 279, (1s,4s)-4-(2-((1r,3r)-3-hydroxycyclobutylamino)-8-(2,4,6-trifluorophenylamino)-9H-purin-9-yl)cyclohexanecarboxamide], greater than 1000 nM.
Consider `NC(=O)[C@H]1CC[C@@H](n2c(Nc3c(Cl)cc(F)cc3Cl)nc3cnc(NC4CC5(COC5)C4)nc32)CC1` [Example 193, (1s,4s)-4-(2-(2-oxaspiro[3.3]heptan-6-ylamino)-8-(2,6-dichloro-4-fluorophenylamino)-9H-purin-9-yl)cyclohexanecarboxamide], for which the IC50 was greater than 1000 nM.
The same measure, in the same setting: as for `CS(=O)(=O)N1CCC(Nc2ncc3nc(Nc4c(F)cc(Cl)cc4F)n([C@H]4CC[C@@H](C(N)=O)CC4)c3n2)CC1` [Example 295, (1s,4s)-4-(8-(4-chloro-2,6-difluorophenylamino)-2-(1-(methylsulfonyl)piperidin-4-ylamino)-9H-purin-9-yl)cyclohexanecarboxamide], the figure is greater than 1000 nM.
The same measure, in the same setting: as for `C[C@@H](CO)Nc1ncc2nc(Nc3cc(Cl)ccc3F)n([C@H]3CC[C@@H](C(N)=O)CC3)c2n1` [Example 171, (1R,4s)-4-(8-(5-chloro-2-fluorophenylamino)-2-((S)-1-hydroxypropan-2-ylamino)-9H-purin-9-yl)cyclohexanecarboxamide], the figure is greater than 1000 nM.
On the same count and under the same terms, as for `NC(=O)[C@H]1CC[C@@H](n2c(Nc3cccc(Cl)c3Cl)nc3cnc(NC4CCOCC4)nc32)CC1` [Example 62, (1s,4s)-4-(8-(2,3-dichlorophenylamino)-2-(tetrahydro-2H-pyran-4-ylamino)-9H-purin-9-yl)cyclohexanecarboxamide], the figure is greater than 1000 nM; as for `N#Cc1cc(Cl)c(Nc2nc3cnc(NC4CCC(F)(F)CC4)nc3n2[C@H]2CC[C@@H](C(N)=O)CC2)c(Cl)c1` [Example 397, (1s,4s)-4-(8-(2,6-dichloro-4-cyanophenylamino)-2-(4,4-difluorocyclohexylamino)-9H-purin-9-yl)cyclohexanecarboxamide], less than 250 nM.

Still in this assay, the particulars now being: Homo sapiens; Lox-IMVI anti-proliferative assay, IC50 activity level; read-out: Activity.
In the case of `NC(=O)[C@H]1CC[C@@H](n2c(Nc3c(Cl)cc(OC(F)(F)F)cc3Cl)nc3cnc(NC4CCCC4)nc32)CC1` [Example 597, (1s,4s)-4-(2-(cyclopentylamino)-8-(2,6-dichloro-4-(trifluoromethoxy)phenylamino)-9H-purin-9-yl)cyclohexanecarboxamide], the IC50 is greater than 1000 nM.
Same read-out and setting: as for `NC(=O)[C@H]1CC[C@@H](n2c(Nc3c(F)cccc3Cl)nc3cnc(N[C@@H]4CCC[C@@H](O)C4)nc32)CC1` [Example 416, (1S,4s)-4-(8-(2-chloro-6-fluorophenylamino)-2-((1R,3R)-3-hydroxycyclohexylamino)-9H-purin-9-yl)cyclohexanecarboxamide], the figure is greater than 1000 nM; as for `NC(=O)[C@H]1CC[C@@H](n2c(Nc3c(F)cc(Cl)cc3Cl)nc3cnc(N[C@@H]4CCC[C@@H](O)C4)nc32)CC1` [Example 422, (1S,4s)-4-(8-(2,4-dichloro-6-fluorophenylamino)-2-((1R,3R)-3-hydroxycyclohexylamino)-9H-purin-9-yl)cyclohexanecarboxamide], 500 to 1000 nM.
The same measure, in the same setting: to `CC(C)Nc1ncc2nc(Nc3c(F)cc(C#N)cc3F)n([C@H]3CC[C@@H](C(N)=O)CC3)c2n1` [Example 441, (1s,4s)-4-(8-(4-cyano-2,6-difluorophenylamino)-2-(isopropylamino)-9H-purin-9-yl)cyclohexanecarboxamide] belongs 500 to 1000 nM; to `NC(=O)[C@H]1CC[C@@H](n2c(Nc3c(Cl)cc(Cl)cc3Cl)nc3cnc(N[C@H]4CCCC[C@H]4O)nc32)CC1` [Example 514, (1R,4s)-4-(2-((1S,2R)-2-hydroxycyclohexylamino)-8-(2,4,6-trichlorophenylamino)-9H-purin-9-yl)cyclohexanecarboxamide], greater than 1000 nM.
Same read-out and setting: as for `N#Cc1cc(Cl)c(Nc2nc3cnc(NC4CC5(COC5)C4)nc3n2[C@H]2CC[C@@H](C(N)=O)CC2)c(Cl)c1` [Example 571, (1s,4s)-4-(2-(2-oxaspiro[3.3]heptan-6-ylamino)-8-(2,6-dichloro-4-cyanophenylamino)-9H-purin-9-yl)cyclohexanecarboxamide], the figure is 250 to 500 nM; as for `NC(=O)[C@H]1CC[C@@H](n2c(Nc3c(F)cc(Cl)cc3Cl)nc3cnc(N[C@H](CO)C(F)(F)F)nc32)CC1` [Example 471, (1S,4s)-4-(8-(2,4-dichloro-6-fluorophenylamino)-2-((R)-1,1,1-trifluoro-3-hydroxypropan-2-ylamino)-9H-purin-9-yl)cyclohexanecarboxamide], greater than 1000 nM.

Staying with this assay, now noted: Homo sapiens; Lox-IMVI melanoma cell line, anti-proliferative assay; read-out: Activity (IC50 activity level).
As for `C[C@]1(C(N)=O)CC[C@@H](n2c(Nc3c(F)cc(C#N)cc3Cl)nc3cnc(N[C@H]4CC[C@H](O)C4)nc32)CC1` [Example 649, (1R,4s)-4-(8-(2-chloro-4-cyano-6-fluorophenylamino)-2-((1S,3S)-3-hydroxycyclopentylamino)-9H-purin-9-yl)-1-methylcyclohexanecarboxamide], the IC50 lay within 250 to 500 nM.
Same read-out and setting: to `C[C@]1(C(N)=O)CC[C@@H](n2c(Nc3c(Cl)cc(F)cc3Cl)nc3cnc(N[C@@H]4CCC[C@@H](O)C4)nc32)CC1` [Example 621, (1S,4s)-4-(8-(2,6-dichloro-4-fluorophenylamino)-2-((1R,3R)-3-hydroxycyclohexylamino)-9H-purin-9-yl)-1-methylcyclohexanecarboxamide] belongs greater than 1000 nM.
With `C[C@]1(C(N)=O)CC[C@@H](n2c(Nc3c(F)cc(F)cc3Cl)nc3cnc(N[C@H]4CCOC[C@H]4F)nc32)CC1` [Example 724, (1R,4s)-4-(8-(2-chloro-4,6-difluorophenylamino)-2-((3S,4S)-3-fluorotetrahydro-2H-pyran-4-ylamino)-9H-purin-9-yl)-1-methylcyclohexanecarboxamide], the IC50 is less than 250 nM.
The same measure, in the same setting: to `N#Cc1cc(F)c(Nc2nc3cnc(N[C@@H]4CCC(F)(F)C4)nc3n2[C@H]2CC[C@@H](C(N)=O)CC2)c(Cl)c1` [Example 698, (1S,4s)-4-(8-(2-chloro-4-cyano-6-fluorophenylamino)-2-((R)-3,3-difluorocyclopentylamino)-9H-purin-9-yl)cyclohexanecarboxamide] belongs less than 250 nM; to `N#Cc1cc(F)c(Nc2nc3cnc(N[C@@H]4CCC[C@@H](O)C4)nc3n2[C@H]2CC[C@@H](C(N)=O)CC2)c(Cl)c1` [Example 685, (1S,4s)-4-(8-(2-chloro-4-cyano-6-fluorophenylamino)-2-((1R,3R)-3-hydroxycyclohexylamino)-9H-purin-9-yl)cyclohexanecarboxamide], 500 to 1000 nM.
On the same count and under the same terms, as for `N#Cc1cc(Cl)c(Nc2nc3cnc(N[C@@H]4CCCN(C(=O)Nc5ccccc5)C4)nc3n2[C@H]2CC[C@@H](C(N)=O)CC2)c(Cl)c1` [Example 780, (R)-3-(9-((1s,4S)-4-carbamoylcyclohexyl)-8-(2,6-dichloro-4-cyanophenylamino)-9H-purin-2-ylamino)-N-phenylpiperidine-1-carboxamide], the figure is greater than 1000 nM; as for `C[C@]1(C(N)=O)CC[C@@H](n2c(Nc3c(Cl)cc(C#N)cc3Cl)nc3cnc(N[C@H]4CC[C@H](O)C4)nc32)CC1` [Example 650, (1R,4s)-4-(8-(2,6-dichloro-4-cyanophenylamino)-2-((1S,3S)-3-hydroxycyclopentylamino)-9H-purin-9-yl)-1-methylcyclohexanecarboxamide], 250 to 500 nM.
Same read-out and setting: as for `C[C@]1(C(N)=O)CC[C@@H](n2c(Nc3c(F)cc(Cl)cc3F)nc3cnc(N[C@H]4CCC[C@@H](O)C4)nc32)CC1` [Example 632, (1R,4s)-4-(8-(4-chloro-2,6-difluorophenylamino)-2-((1S,3R)-3-hydroxycyclohexylamino)-9H-purin-9-yl)-1-methylcyclohexanecarboxamide], the figure is 500 to 1000 nM.
